Measurements as given in paper PMC9223267, “Serine hydroxymethyltransferase as a potential target of antibacterial agents acting synergistically with one-carbon metabolism-related inhibitors” (Communications Biology, 2022).
Values joined by “and” are separate entries in the source; they are usually repeats but may differ in a detail not shown here. Identical values can stand only once. “Also recorded” adds a separate entry of the source. Like-named read-outs stand apart in the source and are kept apart here.

Experiments:
E. faecium [1] = assay: Antibacterial assay with an excess concentration of biomolecules (Ser, Gly, inosine, dT, FA); type: cell-based, Enterococcus faecium (JCM5804)
Method: (§1) E. faecium and E. faecalis were diluted to turbidity equivalents that matched 1.0 McFarland (McF) standard in distilled water (S. aureus and E. coli were also diluted to 0.5 McF), and additionally diluted 1:200 in Mueller–Hinton (MH) broth. The designated concentrations of the tested compounds were prepared by ten-fold serial dilutions directly in 96-well microtiter plates (IWAKI, Shizuoka, Japan), as previously described. […] The other compounds were serially diluted from 20 μM downwards (final concentration, 10 μM). […] Positive control wells included bacteria without any compound, and the negative control wells only contained MH broth. […] The optical density at 600 nm (OD600) was measured using a GloMax microtiter plate reader (Promega, WI, USA), and the EC50 values of each test compound and standard error were calculated by Microsoft Excel function, AVERAGE and STDEV/SQRT.
The ratio of the control EC50 (no competitors added) to the experimental EC50 (competitors added) was calculated for each test substance.

E. faecium [2] = assay: Antibacterial activity evaluation (turbidity, OD600); type: cell-based, Enterococcus faecium (JCM5804); conditions: Enterococcus faecium
Method: as §1

E. faecium [3] = assay: Bacterial viability assay (Microbial Viability Assay Kit-WST, OD450); type: cell-based, Enterococcus faecium; conditions: for Relative bacterial viability: single values
Method: Living E. faecium were determined using the Microbial Viability Assay Kit-WST (DOJINDO, Tokyo, Japan). […] Positive control wells included bacteria seeded into MH broth without compounds, and the negative control wells contained MH broth only. […] Five microlitres of the colouring reagent were added to each well of the 96-well plate every 2 h after starting incubation with each compound.

efmSHMT [4] = target: efmSHMT (Enterococcus faecium, UniProt I3U4H4, M1V); assay: biochemical; type: binding; conditions: 5 μM efmSHMT; 10 mM Gly and 100 μM Ser; Cheng-Prusoff
Chain of efmSHMT (Enterococcus faecium, UniProt I3U4H4, M1V) (I3U4H4 whole entry M1V): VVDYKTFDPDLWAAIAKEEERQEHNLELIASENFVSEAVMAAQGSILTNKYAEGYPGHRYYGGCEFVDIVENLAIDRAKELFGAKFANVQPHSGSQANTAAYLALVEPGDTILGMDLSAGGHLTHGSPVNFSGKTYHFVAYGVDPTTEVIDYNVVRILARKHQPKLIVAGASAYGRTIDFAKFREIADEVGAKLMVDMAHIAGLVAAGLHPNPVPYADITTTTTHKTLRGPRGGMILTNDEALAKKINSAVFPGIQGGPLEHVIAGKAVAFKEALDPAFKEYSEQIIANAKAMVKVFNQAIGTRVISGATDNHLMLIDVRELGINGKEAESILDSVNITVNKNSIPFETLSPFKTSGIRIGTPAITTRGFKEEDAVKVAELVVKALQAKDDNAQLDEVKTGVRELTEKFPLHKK
Method: After adding Me-THF, the efmSHMT solution was incubated for 30 min at room temperature. The optical density at 500 and 600 nm (OD500 and OD600) were then measured using a nanodrop spectrophotometer[24],[25]. OD600 was used as the background. After detection, each concentration of inhibitor was added to the efmSHMT solution and incubated for 30 min at room temperature. OD500 and OD600 were measured. The relative OD500 intensity was calculated as relative OD500 = (OD500 – OD600)/(MAXOD500 – OD600), where MAXOD500 is the average OD500 value in the presence of 1000, 2000 and 4000 μM Me-THF without inhibitors. […] Here, IC50 is the concentration of inhibitor added to the efmSHMT solution and [Me-THF] is the EC50 in the presence of the inhibitor concentration. [EC50 without inhibitor] is the EC50 of Me-THF in the absence of the inhibitor.

S. aureus = assay: Antibacterial activity evaluation (turbidity, OD600); type: cell-based, Staphylococcus aureus (ATCC29213); conditions: Staphylococcus aureus, S. aureus ATCC29213
Method: as §1

Caski cells = assay: Cell cytotoxicity assay (Cell Counting Kit-8, 5 days); type: cell-based, human; conditions: with each cell line (Caski, Hep-2 and Calu-3)
Method: After serial dilution, 100 μL of FBS-containing medium including the cells was added to each well of the plate. […] All CC50 determining assays were conducted in duplicate or triplicate[39],[40].

E. coli = assay: Antibacterial activity evaluation (turbidity, OD600); type: cell-based, Escherichia coli (ATCC25922); conditions: Escherichia coli, E. coli ATCC25922
Method: as §1

E. faecalis = assay: as above; type: cell-based, Enterococcus faecalis (JCM7783); conditions: Enterococcus faecalis, E. faecalis JCM7783
Method: as §1

efmSHMT [5] = type: binding, Enterococcus faecium; conditions: DSF; final drug concentration 50 μM
Method: Protein samples were prepared as 20 μL aliquots containing 0.1 mg/mL protein (efmSHMT/ecSHMT), 1 μL of the ligand in DMSO (final drug concentration, 50 μM) and 2% or 4% SYPRO Orange (Invitrogen, MA, USA). […] Melting points were evaluated as the half-point of the maximum intensity of each curve.

[6] = Enterococcus faecium, JCM5804, E. faecium JCM5804, 1 mM Inosine, read-out: EC50
[7] = Enterococcus faecium, JCM5804, E. faecium JCM5804, 1 mM Inosine, read-out: pEC50 ± S.E. (converted)
[8] = Enterococcus faecium, JCM5804, E. faecium JCM5804, 1 mM deoxythymidine, read-out: EC50
[9] = Enterococcus faecium, JCM5804, E. faecium JCM5804, 1 mM deoxythymidine, read-out: pEC50 ± S.E. (converted)
[10] = Enterococcus faecium, JCM5804, E. faecium JCM5804, 10 mM Glycine, read-out: EC50
[11] = Enterococcus faecium, JCM5804, E. faecium JCM5804, 10 mM Glycine, read-out: pEC50 ± S.E. (converted)
[12] = Enterococcus faecium, JCM5804, E. faecium JCM5804, 100 mM Serine, read-out: EC50
[13] = Enterococcus faecium, JCM5804, E. faecium JCM5804, 100 mM Serine, read-out: pEC50 ± S.E. (converted)
[14] = Enterococcus faecium, JCM5804, E. faecium JCM5804, 0.1 M folate, read-out: EC50
[15] = Enterococcus faecium, JCM5804, E. faecium JCM5804, 0.1 M folate, read-out: pEC50 ± S.E. (converted)
[16] = read-out: pEC50 ± S.E. (converted)

Structure (SMILES) | EC50 (E. faecium [1]; [6]) | EC50 (E. faecium [1]; [7]) | EC50 (E. faecium [1]; [8]) | EC50 (E. faecium [1]; [9]) | EC50 (E. faecium [1]; [10]) | EC50 (E. faecium [1]; [11]) | EC50 (E. faecium [1]; [12]) | EC50 (E. faecium [1]; [13]) | EC50 (E. faecium [1]; [14]) | EC50 (E. faecium [1]; [15]) | Ki (efmSHMT [4]) | EC50 (S. aureus; read-out: EC50) | EC50 (S. aureus; [16]) | selectivity index (S.I.): CC50 against each cell line / EC50 against E. faecium (Caski cells) | EC50 (E. coli; read-out: EC50) | EC50 (E. coli; [16]) | EC50 (E. faecalis; read-out: EC50) | EC50 (E. faecalis; [16]) | ΔTm (thermal stability of efmSHMT) (efmSHMT [5]) | further results
Cc1n[nH]c2c1C(c1cc(N3CCCC3)cc(C(F)(F)F)c1)(C(C)C)C(C#N)=C(N)O2 (centres unmarked) [SHMT-IN-2] | 3.1 µM | 3.16 µM | 2.9 µM | 3.16 µM | 3 µM | 3.16 µM | 4 µM | 3.98 µM | 2.9 µM | 3.16 µM | did not change the OD500; also recorded: did not bind | ≥ 100 µM | ≥ 100 µM | less selective than (+)-SHIN-1, TMP and PMX | > 100 µM | > 100 µM | > 100 µM | > 100 µM | did not stabilise efmSHMT significantly | EC50 (E. faecium [1]; E. faecium JCM5804, 0.1 M folate): independent of FA; EC50 (E. faecium [2]; E. faecium JCM5804, read-out: EC50): 2.9 µM; EC50 (E. faecium [2]; E. faecium JCM5804, read-out: pEC50 ± S.E. (converted)): 3.16 µM; Relative bacterial viability (E. faecium [3]; 40 μM, 0 hours): 0.01862 and 0.0174 and 0.0205 and 0.01931 and 0.02646 and 0.02349 and 0.02966 and 0.03101; Relative bacterial viability (E. faecium [3]; 40 μM, 2 hours): 0.03093 and 0.0302 and 0.02505 and 0.02814 and 0.02877 and 0.02998 and 0.036 and 0.03921; Relative bacterial viability (E. faecium [3]; 40 μM, 6 hours): 0.3579 and 0.3453 and 0.3941 and 0.3482 and 0.392 and 0.3797 and 0.4394 and 0.4307; Relative bacterial viability (E. faecium [3]; 40 μM, 8 hours): 0.4949 and 0.5317 and 0.4381 and 0.3998 and 0.3519 and 0.3235 and 0.4823 and 0.3754; Relative bacterial viability (E. faecium [3]; 40 μM, 10 hours): 0.5237 and 0.542 and 0.4699 and 0.39 and 0.5132 and 0.4488 and 0.4691 and 0.4904; Relative bacterial viability (E. faecium [3]; 40 μM, 12 hours): 0.55 and 0.5489 and 0.5001 and 0.5313 and 0.5571 and 0.5294 and 0.6254 and 0.5482; Relative bacterial viability (E. faecium [3]; 80 μM, 0 hours): 0.02012 and 0.02269 and 0.02791 and 0.02552 and 0.02349 and 0.02305 and 0.03984 and 0.03245; Relative bacterial viability (E. faecium [3]; 80 μM, 2 hours): 0.03305 and 0.03431 and 0.03897 and 0.0377 and 0.0302 and 0.03755 and 0.04307 and 0.03606; Relative bacterial viability (E. faecium [3]; 80 μM, 4 hours): 0.03849 and 0.03773 and 0.03537 and 0.04204 and 0.0354 and 0.0391 and 0.04337 and 0.03653; Relative bacterial viability (E. faecium [3]; 80 μM, 6 hours): 0.04463 and 0.04595 and 0.05326 and 0.05339 and 0.04373 and 0.04075 and 0.04467 and 0.04119; Relative bacterial viability (E. faecium [3]; 80 μM, 8 hours): 0.04711 and 0.04935 and 0.05233 and 0.0524 and 0.04018 and 0.04838 and 0.04621 and 0.04757; Relative bacterial viability (E. faecium [3]; 80 μM, 10 hours): 0.04986 and 0.05353 and 0.04783 and 0.04892; Relative bacterial viability (E. faecium [3]; 80 μM, 12 hours): 0.04784 and 0.03996 and 0.04751 and 0.04436 and 0.04726 and 0.03481 and 0.04716 and 0.0494; EC50 (bacterial viability) (E. faecium [3]; relative bacterial viability after 14 h incubation): weaker activity than the turbidity detection result
CN(Cc1cnc2nc(N)nc(N)c2n1)c1ccc(C(=O)N[C@@H](CCC(=O)O)C(=O)O)cc1 [MTX, methotrexate] | 0.0024 µM | 0.00251 µM | > 100 µM | > 100 µM | 0.0028 µM | 0.00251 µM | 0.0026 µM | 0.00251 µM | 8.5 µM | 7.94 µM | did not change the OD500; also recorded: did not bind | > 100 µM | > 100 µM | less selective than (+)-SHIN-1, TMP and PMX | > 100 µM | > 100 µM | 14 µM | 15.8 µM | did not stabilise efmSHMT significantly | EC50 (E. faecium [2]; JCM5804, E. faecium JCM5804, read-out: EC50): 0.0036 µM; EC50 (E. faecium [2]; JCM5804, E. faecium JCM5804, read-out: pEC50 ± S.E. (converted)): 0.00398 µM; Relative bacterial viability (E. faecium [3]; 2 nM, 0 hours): 0.02233 and 0.0177 and 0.02678 and 0.02266 and 0.01761 and 0.017 and 0.0195 and 0.01799; Relative bacterial viability (E. faecium [3]; 2 nM, 2 hours): 0.03007 and 0.03198 and 0.04012 and 0.03501 and 0.02569 and 0.02735 and 0.02947 and 0.02784; Relative bacterial viability (E. faecium [3]; 2 nM, 6 hours): 0.8015 and 0.7552 and 0.8948 and 0.8943 and 0.5687 and 0.5754 and 0.5661 and 0.5425; Relative bacterial viability (E. faecium [3]; 2 nM, 8 hours): 0.6487 and 0.7535 and 0.8184 and 0.7635 and 0.7144 and 0.6621 and 0.6673 and 0.7812; Relative bacterial viability (E. faecium [3]; 2 nM, 10 hours): 0.7053 and 0.6673 and 0.7036 and 0.6902; Relative bacterial viability (E. faecium [3]; 2 nM, 12 hours): 0.8527 and 0.9211 and 0.863 and 0.9139 and 0.786 and 0.828 and 0.8102 and 0.8671; Relative bacterial viability (E. faecium [3]; 20 nM, 0 hours): 0.02944 and 0.02382 and 0.02242 and 0.01876 and 0.02362 and 0.02115 and 0.02309 and 0.02203; Relative bacterial viability (E. faecium [3]; 20 nM, 2 hours): 0.04282 and 0.03899 and 0.03091 and 0.03386 and 0.03007 and 0.02907 and 0.03321 and 0.0351; Relative bacterial viability (E. faecium [3]; 20 nM, 4 hours): 0.09761 and 0.08481 and 0.06333 and 0.08156 and 0.05837 and 0.05915 and 0.09197 and 0.0766; Relative bacterial viability (E. faecium [3]; 20 nM, 6 hours): 0.09779 and 0.1224 and 0.09629 and 0.09367 and 0.1125 and 0.1318 and 0.1324 and 0.1243; Relative bacterial viability (E. faecium [3]; 20 nM, 8 hours): 0.09766 and 0.1007 and 0.1109 and 0.1082 and 0.07161 and 0.0792 and 0.1047 and 0.1064; Relative bacterial viability (E. faecium [3]; 20 nM, 10 hours): 0.1166 and 0.1064 and 0.08667 and 0.1003 and 0.08673 and 0.1012 and 0.1144 and 0.09737; Relative bacterial viability (E. faecium [3]; 20 nM, 12 hours): 0.09054 and 0.1107 and 0.09534 and 0.1014 and 0.09177 and 0.09711 and 0.09672 and 0.1035; EC50 (E. faecium [3]; Enterococcus faecium, relative bacterial viability after 14 h incubation): 0.0084 µM
